Laboratory results published in US20170320870A1 (Medical Research Council Technology, priority 2009, published 2017).

Biological target: T1, LRRK2 wild type (recombinant human, catalytic domain amino acids 970-2527, GST-tagged) (Homo sapiens, UniProt Q5S007)
T1 construct: The wild type used was recombinant human, catalytic domain (amino acids 970-2527) GST-tagged, expressed in insect cells; GST; purchased Invitrogen Corporation PV4873; host or cells: insect cells
Test: LRRK2 wild type protein kinase assay ([γ-33P] ATP, peptide substrate […]), IC50
Format: biochemical
Conditions: LRRK2 (variant not given); read-out: Potency score, LRRK2 IC50
How it was run: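 IC50 derived from duplicate 10-point titrations, with 33P incorporation into a 100 μM peptide counted after P81 filter capture. Roughly 5 nM unactivated kinase reacted with Mg/[γ-33P]ATP for 180 min at room temperature (~21 °C), pH 7.5 Tris buffer containing 10 mM MgCl2, EGTA and DTT; acid-quenched.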

T1 sequence (Q5S007 970-2527): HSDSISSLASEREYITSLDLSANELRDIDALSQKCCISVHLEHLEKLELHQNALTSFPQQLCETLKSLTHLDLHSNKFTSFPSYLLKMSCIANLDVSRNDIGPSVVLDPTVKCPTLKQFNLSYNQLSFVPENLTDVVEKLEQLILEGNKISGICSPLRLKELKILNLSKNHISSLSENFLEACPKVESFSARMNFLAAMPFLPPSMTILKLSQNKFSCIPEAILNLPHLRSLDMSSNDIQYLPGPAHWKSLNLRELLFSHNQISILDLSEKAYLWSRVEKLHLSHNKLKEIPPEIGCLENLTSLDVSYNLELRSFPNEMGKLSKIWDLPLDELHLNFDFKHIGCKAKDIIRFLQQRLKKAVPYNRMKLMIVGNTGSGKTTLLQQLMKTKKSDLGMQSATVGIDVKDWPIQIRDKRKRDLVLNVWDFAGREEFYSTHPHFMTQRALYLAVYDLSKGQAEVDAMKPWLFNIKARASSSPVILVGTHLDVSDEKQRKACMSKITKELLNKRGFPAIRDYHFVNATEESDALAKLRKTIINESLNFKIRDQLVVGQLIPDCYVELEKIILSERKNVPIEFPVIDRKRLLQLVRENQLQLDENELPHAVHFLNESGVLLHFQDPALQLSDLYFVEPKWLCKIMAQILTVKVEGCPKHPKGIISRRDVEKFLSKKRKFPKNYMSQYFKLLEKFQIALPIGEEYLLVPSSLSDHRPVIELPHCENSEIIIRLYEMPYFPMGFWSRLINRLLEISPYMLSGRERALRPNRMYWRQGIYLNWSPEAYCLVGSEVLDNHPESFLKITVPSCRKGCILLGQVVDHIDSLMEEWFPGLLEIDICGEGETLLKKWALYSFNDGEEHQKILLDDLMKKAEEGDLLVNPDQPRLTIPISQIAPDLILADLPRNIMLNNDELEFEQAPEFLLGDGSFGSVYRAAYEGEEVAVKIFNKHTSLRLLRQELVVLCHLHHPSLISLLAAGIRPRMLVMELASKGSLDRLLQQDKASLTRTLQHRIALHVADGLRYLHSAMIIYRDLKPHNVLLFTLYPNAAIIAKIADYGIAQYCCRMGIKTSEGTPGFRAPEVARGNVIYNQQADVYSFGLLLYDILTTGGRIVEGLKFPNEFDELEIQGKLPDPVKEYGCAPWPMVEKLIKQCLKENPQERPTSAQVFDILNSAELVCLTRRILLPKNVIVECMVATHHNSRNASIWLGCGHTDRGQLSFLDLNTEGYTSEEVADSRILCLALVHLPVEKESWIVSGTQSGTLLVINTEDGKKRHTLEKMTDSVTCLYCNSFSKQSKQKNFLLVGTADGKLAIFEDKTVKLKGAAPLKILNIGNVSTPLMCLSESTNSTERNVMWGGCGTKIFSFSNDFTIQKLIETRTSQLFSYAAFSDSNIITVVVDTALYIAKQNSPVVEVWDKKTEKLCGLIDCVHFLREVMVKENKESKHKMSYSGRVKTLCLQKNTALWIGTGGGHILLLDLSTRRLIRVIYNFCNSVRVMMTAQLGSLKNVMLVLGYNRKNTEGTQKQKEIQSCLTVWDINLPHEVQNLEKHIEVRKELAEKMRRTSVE

O=C(CCc1n[nH]c2ccnc(NC3CCCCC3)c12)N1CCC(F)(F)CC1 [Example 168, 3-(4-Cyclohexylamino-1H-pyrazolo[4,3-c]pyridin-3-yl)-1-(4,4-difluoro-piperidin-1-yl)-propan-1-one] and CC1CCN(C(=O)CCc2n[nH]c3ccnc(NC4CCCCC4)c23)CC1 [Example 192, 3-(4-Cyclohexylamino-1H-pyrazolo[4,3-c]pyridin-3-yl)-1-(4-methyl-piperidin-1-yl)-propan-1-one] fall in the same range of IC50: 0.1 to 1 µM for the first, 0.1 to 1 µM for the second.

O=C(Nc1ccc(CCc2n[nH]c3ccnc(NC4CCCCC4)c23)cc1)c1cccnc1 [Example 266, N-{4-[2-(4-Cyclohexylamino-1H-pyrazolo[4,3-c]pyridin-3-yl)-ethyl]-phenyl}-nicotinamide] and O=C(Nc1ccc(CCc2n[nH]c3ccnc(NC4CCCCC4)c23)cc1)c1ccncc1 [Example 267, N-{4-[2-(4-Cyclohexylamino-1H-pyrazolo[4,3-c]pyridin-3-yl)-ethyl]-phenyl}-isonicotinamide] cannot be ordered by IC50: under 0.1 µM for the first, under 0.1 µM for the second.

First: Cc1n[nH]c2ccnc(CCC(C)C)c12 [Example 128, 3-Methyl-4-(3-methyl-butyl)-1H-pyrazolo[4,3-c]pyridine]
Second: Cc1n[nH]c2ccnc(NCC(C)C)c12 [Example 24, Isobutyl-(3-methyl-1H-pyrazolo[4,3-c]pyridin-4-yl)-amine]
The IC50 of the first is higher: 1 to 10 µM for the first, 0.1 to 1 µM for the second.

First: Cc1n[nH]c2ccnc(-c3ccc(CNS(C)(=O)=O)cc3)c12 [Example 55, N-[4-(3-Methyl-1H-pyrazolo[4,3-c]pyridin-4-yl)-benzyl]-methane-sulfonamide]
Second: Cc1n[nH]c2ccnc(-c3ccc(C#N)cc3)c12 [Example 54, 4-(3-Methyl-1H-pyrazolo[4,3-c]pyridin-4-yl)-benzonitrile]
The IC50 of the first is lower: 0.1 to 1 µM for the first, 1 to 10 µM for the second. The first is the more potent here.

CCCNc1nccc2[nH]nc(C)c12 [Example 16, (3-Methyl-1H-pyrazolo[4,3-c]pyridin-4-yl)-propyl-amine] and Cc1n[nH]c2ccnc(NC(C)C)c12 [Example 36, Isopropyl-(3-methyl-1H-pyrazolo[4,3-c]pyridin-4-yl)-amine] fall in the same range of IC50: 0.1 to 1 µM for the first, 0.1 to 1 µM for the second.

First: CC(=O)N1CCC(CCc2n[nH]c3ccnc(NC4CCCCC4)c23)CC1 [Example 219, 1-{4-[2-(4-Cyclohexylamino-1H-pyrazolo[4,3-c]pyridin-3-yl)-ethyl]-piperidin-1-yl}-ethanone]
Second: CC1CCCCN1C(=O)CCc1n[nH]c2ccnc(NC3CCCCC3)c12 (stereo not shown) [Example 198, 3-(4-Cyclohexylamino-1H-pyrazolo[4,3-c]pyridin-3-yl)-1-(2-methyl-piperidin-1-yl)-propan-1-one]
The IC50 of the first is higher: 1 to 10 µM for the first, 0.1 to 1 µM for the second.

First: Cc1n[nH]c2ccnc(Nc3ccc(C(=O)N(C)C)cc3)c12 [Example 74, N,N-Dimethyl-4-(3-methyl-1H-pyrazolo[4,3-c]pyridin-4-ylamino)-benzamide]
Second: Cc1n[nH]c2ccnc(Nc3cccc(N(C)C)c3)c12 [Example 92, N,N-Dimethyl-N′-(3-methyl-1H-pyrazolo[4,3-c]pyridin-4-yl)-benzene-1,3-diamine]
The IC50 of the first is lower: 0.1 to 1 µM for the first, 1 to 10 µM for the second.

First: CC(C)CN(C)C(=O)CCc1n[nH]c2ccnc(NC3CCCCC3)c12 [Example 182, 3-(4-Cyclohexylamino-1H-pyrazolo[4,3-c]pyridin-3-yl)-N-isobutyl-N-methyl-propionamide]
Second: c1ccc(CCc2n[nH]c3ccnc(NC4CCCCC4)c23)cc1 [Example 213, Cyclohexyl-(3-phenethyl-1H-pyrazolo[4,3-c]pyridin-4-yl)-amine]
The IC50 of the first is higher: 0.1 to 1 µM for the first, under 0.1 µM for the second. The second is the more potent here.

First: Cc1n[nH]c2ccnc(Nc3cnn(C)c3)c12 [Example 88, (3-Methyl-1H-pyrazolo[4,3-c]pyridin-4-yl)-(1-methyl-1H-pyrazol-4-yl)-amine]
Second: Cc1ccc(Nc2nccc3[nH]nc(C)c23)cn1 [Example 344, (3-Methyl-1H-pyrazolo[4,3-c]pyridin-4-yl)-(6-methyl-pyridin-3-yl)-amine]
The IC50 of the first is lower: 0.1 to 1 µM for the first, 1 to 10 µM for the second.

O=C(Nc1cccc(CCc2n[nH]c3ccnc(NC4CCCCC4)c23)c1)c1cccc(Cl)c1 [Example 226, 3-Chloro-N-{3-[2-(4-cyclohexylamino-1H-pyrazolo[4,3-c]pyridin-3-yl)-ethyl]-phenyl}-benzamide] and Nc1cccc(CCc2n[nH]c3ccnc(NC4CCCCC4)c23)c1 [Example 221, {3-[2-(3-Amino-phenyl)-ethyl]-1H-pyrazolo[4,3-c]pyridin-4-yl}-cyclohexyl-amine] cannot be ordered by IC50: under 0.1 µM for the first, under 0.1 µM for the second.

Cc1n[nH]c2ccnc(NCCCn3cccn3)c12 [Example 345, (3-Methyl-1H-pyrazolo[4,3-c]pyridin-4-yl)-(3-pyrazol-1-yl-propyl)-amine] and Cc1n[nH]c2ccnc(NCCc3ccccn3)c12 [Example 2, (3-Methyl-1H-pyrazolo[4,3-c]pyridin-4-yl)-(2-pyridin-2-yl-ethyl)-amine] fall in the same range of IC50: 1 to 10 µM for the first, 1 to 10 µM for the second.

First: Cc1n[nH]c2ccnc(-c3ncco3)c12 [Example 129, 3-Methyl-4-oxazol-2-yl-1H-pyrazolo[4,3-c]pyridine]
Second: Cc1n[nH]c2ccnc(-c3ccco3)c12 [Example 48, 4-Furan-2-yl-3-methyl-1H-pyrazolo[4,3-c]pyridine]
The IC50 of the first is higher: 1 to 10 µM for the first, 0.1 to 1 µM for the second. The second is the more potent here.

Cc1n[nH]c2ccnc(Nc3cccc(Cl)c3)c12 [Example 59, (3-Chloro-phenyl)-(3-methyl-1H-pyrazolo[4,3-c]pyridin-4-yl)-amine] and Cc1cccc(Nc2nccc3[nH]nc(C)c23)c1 [Example 319, (3-Methyl-phenyl)-(3-methyl-1H-pyrazolo[4,3-c]pyridin-4-yl)-amine] fall in the same range of IC50: 0.1 to 1 µM for the first, 0.1 to 1 µM for the second.

Cc1n[nH]c2ccnc(O[C@@H](C)Cc3ccccc3)c12 [Example 300, 3-Methyl-4-((S)-1-methyl-2-phenyl-ethoxy)-1H-pyrazolo[4,3-c]pyridine] and Cc1n[nH]c2ccnc(NCCc3ccccc3)c12 [Example 335] fall in the same range of IC50: 0.1 to 1 µM for the first, 0.1 to 1 µM for the second.

First: Cc1n[nH]c2ccnc(N[C@@H](C)C(C)C)c12 [Example 40, ((S)-1,2-Dimethyl-propyl)-(3-methyl-1H-pyrazolo[4,3-c]pyridin-4-yl)-amine]
Second: Cc1n[nH]c2ccnc(OCC(C)C)c12 [Example 280, 4-Isobutoxy-3-methyl-1H-pyrazolo[4,3-c]pyridine]
The IC50 of the first is higher: 0.1 to 1 µM for the first, under 0.1 µM for the second.

First: Cc1n[nH]c2ccnc(Nc3ccccc3Cl)c12 [Example 309, (2-Chloro-phenyl)-(3-methyl-1H-pyrazolo[4,3-c]pyridin-4-yl)-amine]
Second: Cc1n[nH]c2ccnc(NCc3cccc(Cl)c3)c12 [Example 314, (3-Chloro-benzyl)-(3-methyl-1H-pyrazolo[4,3-c]pyridin-4-yl)-amine]
The IC50 of the first is lower: 0.1 to 1 µM for the first, 1 to 10 µM for the second. The first is the more potent here.

N#CCc1ccc(-c2n[nH]c3ccnc(NC4CCCCC4)c23)cc1 [Example 156, [4-(4-Cyclohexylamino-1H-pyrazolo[4,3-c]pyridin-3-yl)-phenyl]-acetonitrile] and Clc1cccc(-c2n[nH]c3ccnc(NC4CCCCC4)c23)c1 [Example 144, [3-(3-Chloro-phenyl)-1H-pyrazolo[4,3-c]pyridin-4-yl]-cyclohexyl-amine] fall in the same range of IC50: 0.1 to 1 µM for the first, 0.1 to 1 µM for the second.

Compared with COc1ccc(C(=O)N2CCC(Nc3nccc4[nH]nc(C)c34)CC2)cc1 [Example 105, (4-Methoxy-phenyl)-[4-(3-methyl-1H-pyrazolo[4,3-c]pyridin-4-ylamino)-piperidin-1-yl]-methanone], O=C(c1ccc(CCc2n[nH]c3ccnc(NC4CCCCC4)c23)cc1)N1CC[C@H](c2cccnc2)C1 [Example 248, {4-[2-(4-Cyclohexylamino-1H-pyrazolo[4,3-c]pyridin-3-yl)-ethyl]-phenyl}-((R)-3-pyridin-3-yl-pyrrolidin-1-yl)-methanone] is lower in IC50: 1 to 10 µM for the first, under 0.1 µM for the second.

c1cc2[nH]ncc2c(NC2CCCCC2)n1 [Example 133, Cyclohexyl-(1H-pyrazolo[4,3-c]pyridin-4-yl)-amine] and Cc1n[nH]c2ccnc(NCC3CCCCC3)c12 [Example 325, Cyclohexylmethyl-(3-methyl-1H-pyrazolo[4,3-c]pyridin-4-yl)-amine] fall in the same range of IC50: 1 to 10 µM for the first, 1 to 10 µM for the second.

O=C(NCc1ccco1)c1ccc(CCc2n[nH]c3ccnc(NC4CCCCC4)c23)cc1 [Example 250, 4-[2-(4-Cyclohexylamino-1H-pyrazolo[4,3-c]pyridin-3-yl)-ethyl]-N-furan-2-ylmethyl-benzamide] and O=C(CCc1n[nH]c2ccnc(NC3CCCCC3)c12)N1CCC(c2ccncc2)C1 (stereo not shown) [Example 209, 3-(4-Cyclohexylamino-1H-pyrazolo[4,3-c]pyridin-3-yl)-1-(3-pyridin-4-yl-pyrrolidin-1-yl)-propan-1-one] cannot be ordered by IC50: under 0.1 µM for the first, under 0.1 µM for the second.

Cc1n[nH]c2ccnc(Nc3ccc4cn[nH]c4c3)c12 [Example 93, (1H-Indazol-6-yl)-(3-methyl-1H-pyrazolo[4,3-c]pyridin-4-yl)-amine] and Cc1n[nH]c2ccnc(Nc3ccc4c(c3)CN(C)CC4)c12 [Example 75, (3-Methyl-1H-pyrazolo[4,3-c]pyridin-4-yl)-(2-methyl-1,2,3,4-tetrahydro-isoquinolin-7-yl)-amine] fall in the same range of IC50: 0.1 to 1 µM for the first, 0.1 to 1 µM for the second.

Cc1n[nH]c2ccnc(N3CCN(c4cccc(Cl)c4)CC3)c12 [Example 7, 4-[4-(3-Chloro-phenyl)-piperazin-1-yl]-3-methyl-1H-pyrazolo[4,3-c]pyridine] and Cc1n[nH]c2ccnc(N3CCN(c4ccccn4)CC3)c12 [Example 9, 3-Methyl-4-(4-pyridin-2-yl-piperazin-1-yl)-1H-pyrazolo[4,3-c]pyridine] fall in the same range of IC50: 1 to 10 µM for the first, 1 to 10 µM for the second.

First: Cc1n[nH]c2ccnc(OC3CCCC3)c12 [Example 115, 4-Cyclopentyloxy-3-methyl-1H-pyrazolo[4,3-c] pyridine]
Second: Cc1n[nH]c2ccnc(Nc3ccc(C(F)(F)F)cc3)c12 [Example 346, (3-Methyl-1H-pyrazolo[4,3-c]pyridin-4-yl)-(4-trifluoromethyl-phenyl)-amine]
The IC50 of the first is lower: under 0.1 µM for the first, 0.1 to 1 µM for the second.
